# Reference: article PMC9500072, “Topical application of an irreversible small molecule inhibitor of lysyl oxidases ameliorates skin scarring and fibrosis” (Nature Communications, 2022)
# “And” between values parts separate entries of the source, which are not always exact repeats. Equal values may be shown once.
# Key:
# Endothelin ETA = Endothelin ETA (Homo sapiens, UniProt P25101); assay: Eurofins panel 224010; type: binding
# Histamine H1 = Histamine H1 (Homo sapiens, UniProt P35367); assay: Eurofins panel 239610; type: binding
# Chain of Histamine H1 (P35367 whole entry): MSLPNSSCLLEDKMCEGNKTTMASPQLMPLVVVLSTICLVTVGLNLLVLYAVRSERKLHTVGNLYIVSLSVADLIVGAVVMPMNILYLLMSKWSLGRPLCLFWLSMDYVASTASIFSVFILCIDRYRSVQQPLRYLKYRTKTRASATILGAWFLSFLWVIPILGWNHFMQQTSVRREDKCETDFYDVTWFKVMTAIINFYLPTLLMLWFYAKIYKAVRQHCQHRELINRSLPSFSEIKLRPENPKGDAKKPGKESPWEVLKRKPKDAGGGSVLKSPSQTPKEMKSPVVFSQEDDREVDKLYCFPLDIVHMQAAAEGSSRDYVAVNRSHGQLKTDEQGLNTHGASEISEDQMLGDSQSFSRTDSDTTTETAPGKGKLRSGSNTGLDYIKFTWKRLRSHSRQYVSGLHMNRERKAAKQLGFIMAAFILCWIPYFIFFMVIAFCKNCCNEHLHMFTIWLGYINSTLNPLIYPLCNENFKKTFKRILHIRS
# [1] = tested on: full-thickness excision injury scar; assay: Murine excision injury model; type: in vivo, C57BL6/J mice
# Text: Having established promising in vivo anti-fibrotic efficacy, we next evaluated a full-thickness excision injury model in mice. Full-thickness excision injuries of approximately 1.1 cm^2 (approximately 2% body surface area) of dorsal skin were created under anesthesia. From Day 2 post-injury, animals received daily application of 0, 0.5, or 1.5% PXS-6302 oil in water cream for 28 days. At the end of the experiment, all animals were euthanised and scar tissue analyzed for collagen and cross-link content. […] Therefore, when applied after injury and during the healing phase, PXS-6302 reduced collagen crosslinking and total collagen deposition in the scar. Reassuringly, the efficacy of PXS-6302 was in line with earlier studies (performed with the first-generation inhibitor, PXS-4787, Supplementary Fig. S7) albeit with what appears to be a more comprehensive impact on crosslinking at a lower dose.
# Cell pellets or isolated tissue samples were completely hydrolyzed in 1.5 mL 6 M hydrochloric acid for 24 h at 105 °C. After complete hydrolysis, samples were dried using a vacuum dryer and reconstituted using 200 µL MilliQ water. The sample clean-up was performed using solid-phase extraction method which uses C18 and SCX solid-phase extraction cartridges for sample purification. The samples were run on UPLC-MS-MS (Mass Spectrometer: Thermo Scientific TSQ Endura Triple quadrupole, UPLC: Thermo Scientific Dionex UltiMate 3000) using Agilent RRHD SB-C18,2.1x50mm,1.8um analytical column and solvent A: 10 mM ammonium formate, 0.1% formic acid, 0.1% HFBA in H2O and solvent B: 10 mM ammonium formate, 0.1% formic acid, 0.1% HFBA in MeOH and analyzed as previously described. Limits of detection are listed in Supplementary Table S4.
# Nine-week-old C57BL6/J female mice (n = 8 per group) received a full-thickness excision injury of 1.1 cm^2 on dorsal area using a circular 12-mm biopsy punch (Acu-Punch, Badand Medical, P1250) (approximately 2% body surface area) under anesthesia. All animals received intramuscular injection of buprenorphine (0.1 mg/kg) as an analgesia. Paracetamol (1 mg/ml) was provided for 5 days post-injury in drinking water. Animals were allowed to recover for 24 h post-injury. Animals in the treatment group received twice a day application of 3% PXS-4787 cream for 28 days. For PXS-6302, once per day application of 1.5% concentration cream was used. At the end of the experiment, all animals were euthanised using an intraperitoneal injection of pentobarbitone (160 mg Kg-1) under Isoflurane anesthesia, and scar tissues were removed. The scar skin was fixed in 4% paraformaldehyde overnight at 4 °C. After fixation, tissues were washed in sterile PBS at room temperature. Samples were processed in Leica ASP300S Tissue Processor followed by embedding in paraffin blocks using tissue processor (Leica EG1150 modular tissue embedding center). The paraffin blocks were sectioned at 5 µm thickness using a wax microtome (fully automated Leica RM2255). For standard histology, the skin sections were stained with hematoxylin and eosin stain and Masson’s Trichrome stain. The stained sections were used to determine the collagen fiber orientation in the control and treatment specimens. All stained skin tissue sections were processed for whole slide imaging using a ScanScopeXT (Aperio Technologies, USA) at 20-x magnification. The digital images were collected and analyzed using ImageScope software (Aperio Techologies, Inc, USA). A piece of excised mouse scar tissue was processed for the collagen crosslinks extraction. The scar skin was weighed and homogenized in 900 µL PBS (FastPrep-24TM5G(MP) homogenizer). The tissue homogenate equivalent to 10 mg tissue was transferred to heat/acid resistant screw cap tube (VWR 16466-060) and the total volume of 870 µL was adjusted with PBS. The tissue homogenate was reduced with a Sodium borohydride buffer and processed for cross-link extraction protocol as mentioned in previous section.
# [2] = LeadProfilingScreen, Eurofins CEREP Panlabs, 68 assays; type: binding; conditions: test concentration 10 µM
# Opiate κ(OP2, KOP) = Opiate κ(OP2, KOP) (Homo sapiens, UniProt P41145); assay: Eurofins panel 260210; type: binding
# Chain of Opiate κ(OP2, KOP) (P41145 whole entry): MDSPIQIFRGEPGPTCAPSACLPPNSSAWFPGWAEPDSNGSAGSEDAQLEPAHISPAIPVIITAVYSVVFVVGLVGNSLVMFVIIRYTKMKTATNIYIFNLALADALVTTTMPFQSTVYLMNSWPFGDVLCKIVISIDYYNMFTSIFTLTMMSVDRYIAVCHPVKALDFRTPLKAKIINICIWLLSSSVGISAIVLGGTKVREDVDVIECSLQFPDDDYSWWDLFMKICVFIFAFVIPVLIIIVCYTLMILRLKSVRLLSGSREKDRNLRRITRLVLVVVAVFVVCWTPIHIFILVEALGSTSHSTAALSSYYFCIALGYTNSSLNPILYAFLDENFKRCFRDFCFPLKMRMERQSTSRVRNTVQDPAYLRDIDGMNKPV
# [3] = tested on: Calcium Channel L-Type, Dihydropyridine; assay: Eurofins panel 214600; type: binding, rat
# Adrenergic α1D = Adrenergic α1D (Homo sapiens, UniProt P25100); assay: Eurofins panel 203400; type: binding
# Cannabinoid CB1 = Cannabinoid CB1 (Homo sapiens, UniProt P21554); assay: Eurofins panel 217030; type: binding
# Chain of Cannabinoid CB1 (P21554 whole entry): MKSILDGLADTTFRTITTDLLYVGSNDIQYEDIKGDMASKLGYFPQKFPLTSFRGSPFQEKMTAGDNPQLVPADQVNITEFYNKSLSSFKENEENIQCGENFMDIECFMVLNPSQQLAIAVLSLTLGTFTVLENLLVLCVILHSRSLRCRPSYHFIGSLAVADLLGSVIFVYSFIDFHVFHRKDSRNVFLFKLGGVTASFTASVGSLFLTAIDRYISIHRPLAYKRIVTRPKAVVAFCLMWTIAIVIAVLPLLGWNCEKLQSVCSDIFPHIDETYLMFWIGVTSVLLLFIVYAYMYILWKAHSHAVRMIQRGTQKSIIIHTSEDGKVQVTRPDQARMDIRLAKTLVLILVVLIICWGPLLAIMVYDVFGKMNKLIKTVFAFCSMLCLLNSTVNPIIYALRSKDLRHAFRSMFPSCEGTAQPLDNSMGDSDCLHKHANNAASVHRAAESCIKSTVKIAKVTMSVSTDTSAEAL
# Opiate µ(OP3, MOP) = Opiate µ(OP3, MOP) (Homo sapiens, UniProt P35372); assay: Eurofins panel 260410; type: binding
# Chain of Opiate µ(OP3, MOP) (P35372 whole entry): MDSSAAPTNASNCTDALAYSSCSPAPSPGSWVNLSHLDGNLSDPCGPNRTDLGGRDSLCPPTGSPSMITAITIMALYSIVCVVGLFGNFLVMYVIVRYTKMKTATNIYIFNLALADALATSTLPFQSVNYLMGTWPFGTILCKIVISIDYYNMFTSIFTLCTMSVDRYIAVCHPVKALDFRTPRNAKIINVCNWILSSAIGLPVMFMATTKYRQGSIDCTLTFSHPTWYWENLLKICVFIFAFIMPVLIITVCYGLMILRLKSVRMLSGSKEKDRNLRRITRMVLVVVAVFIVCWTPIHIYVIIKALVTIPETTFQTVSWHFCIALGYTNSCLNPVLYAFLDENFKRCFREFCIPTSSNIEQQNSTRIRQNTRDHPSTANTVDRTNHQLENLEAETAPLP
# Potassium Channel [KATP] = Potassium Channel [KATP] (Cricetus cricetus, UniProt Q09427); assay: Eurofins panel 265600; type: binding, ham
# Text: PXS-4787 competes with a model substrate (putrescine) for the LOX binding site (Fig. 2d). The allylamine of PXS-4787 interacts with the co-factor of the enzyme and elicits mechanism-based inhibition (Fig. 2e). Through careful optimization, and in contrast to BAPN, PXS-4787 selectivity targets lysyl oxidases and is neither an inhibitor of, nor a substrate for, related oxidases (Fig. 2f, g and Supplementary Table S1). Furthermore, PXS-4787 was clean when profiled in a broad panel of macromolecular targets using enzyme and radioligand binding assays (LeadProfilingScreen, Eurofins CEREP Panlabs, 68 assays, test concentration 10 µM; Supplementary Data S1).
# Histamine H2 = Histamine H2 (Homo sapiens, UniProt P25021); assay: Eurofins panel 239710; type: binding
# Chain of Histamine H2 (P25021 whole entry): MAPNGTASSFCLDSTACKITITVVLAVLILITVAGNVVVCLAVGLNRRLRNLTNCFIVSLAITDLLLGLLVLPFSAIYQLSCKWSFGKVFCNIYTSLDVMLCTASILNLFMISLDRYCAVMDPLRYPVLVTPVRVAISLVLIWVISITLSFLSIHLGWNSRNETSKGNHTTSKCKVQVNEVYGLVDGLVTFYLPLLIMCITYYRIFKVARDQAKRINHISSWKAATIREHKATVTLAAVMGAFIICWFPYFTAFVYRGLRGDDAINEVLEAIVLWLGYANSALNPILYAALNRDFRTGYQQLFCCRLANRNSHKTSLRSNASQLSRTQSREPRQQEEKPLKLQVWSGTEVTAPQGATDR
# Sodium Channel, Site 2 = assay: Eurofins panel 279510; type: binding, rat
# [4] = biological target: Serotonin (5-Hydroxytryptamine) 5-HT2B (Homo sapiens, UniProt P41595); assay: Eurofins panel 271700; type: binding
# Chain of Serotonin (5-Hydroxytryptamine) 5-HT2B (P41595 whole entry): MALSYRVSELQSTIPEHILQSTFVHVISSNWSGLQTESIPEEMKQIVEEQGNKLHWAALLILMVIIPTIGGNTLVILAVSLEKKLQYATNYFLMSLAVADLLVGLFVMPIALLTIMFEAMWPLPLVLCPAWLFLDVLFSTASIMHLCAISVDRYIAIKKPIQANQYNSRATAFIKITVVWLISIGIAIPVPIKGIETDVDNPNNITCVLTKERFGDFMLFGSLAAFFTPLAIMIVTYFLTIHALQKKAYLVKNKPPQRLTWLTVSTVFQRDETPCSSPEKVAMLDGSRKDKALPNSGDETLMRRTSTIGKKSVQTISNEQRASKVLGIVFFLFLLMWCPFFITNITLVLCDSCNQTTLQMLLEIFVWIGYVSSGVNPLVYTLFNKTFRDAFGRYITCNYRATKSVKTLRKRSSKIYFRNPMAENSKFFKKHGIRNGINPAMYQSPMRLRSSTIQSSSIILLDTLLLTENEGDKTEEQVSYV
# [5] = biological target: Serotonin (5-Hydroxytryptamine) 5-HT3 (Homo sapiens, UniProt P46098); assay: Eurofins panel 271910; type: binding
# Chain of Serotonin (5-Hydroxytryptamine) 5-HT3 (P46098 24-478): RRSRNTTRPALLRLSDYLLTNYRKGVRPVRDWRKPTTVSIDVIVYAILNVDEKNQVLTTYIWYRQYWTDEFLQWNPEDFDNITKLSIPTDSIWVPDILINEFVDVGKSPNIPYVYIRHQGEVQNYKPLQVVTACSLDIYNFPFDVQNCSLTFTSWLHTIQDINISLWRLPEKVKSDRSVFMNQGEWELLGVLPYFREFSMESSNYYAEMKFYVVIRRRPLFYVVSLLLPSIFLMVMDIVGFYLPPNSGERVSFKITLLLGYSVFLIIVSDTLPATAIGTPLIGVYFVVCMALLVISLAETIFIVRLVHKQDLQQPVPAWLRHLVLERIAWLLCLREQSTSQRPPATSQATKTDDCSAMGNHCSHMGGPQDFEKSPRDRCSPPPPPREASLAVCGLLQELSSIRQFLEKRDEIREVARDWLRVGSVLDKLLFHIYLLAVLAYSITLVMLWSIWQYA
# [6] = biological target: Transporter, Dopamine (DAT) (Homo sapiens, UniProt Q01959); assay: Eurofins panel 220320; type: binding
# Chain of Transporter, Dopamine (DAT) (Q01959 whole entry): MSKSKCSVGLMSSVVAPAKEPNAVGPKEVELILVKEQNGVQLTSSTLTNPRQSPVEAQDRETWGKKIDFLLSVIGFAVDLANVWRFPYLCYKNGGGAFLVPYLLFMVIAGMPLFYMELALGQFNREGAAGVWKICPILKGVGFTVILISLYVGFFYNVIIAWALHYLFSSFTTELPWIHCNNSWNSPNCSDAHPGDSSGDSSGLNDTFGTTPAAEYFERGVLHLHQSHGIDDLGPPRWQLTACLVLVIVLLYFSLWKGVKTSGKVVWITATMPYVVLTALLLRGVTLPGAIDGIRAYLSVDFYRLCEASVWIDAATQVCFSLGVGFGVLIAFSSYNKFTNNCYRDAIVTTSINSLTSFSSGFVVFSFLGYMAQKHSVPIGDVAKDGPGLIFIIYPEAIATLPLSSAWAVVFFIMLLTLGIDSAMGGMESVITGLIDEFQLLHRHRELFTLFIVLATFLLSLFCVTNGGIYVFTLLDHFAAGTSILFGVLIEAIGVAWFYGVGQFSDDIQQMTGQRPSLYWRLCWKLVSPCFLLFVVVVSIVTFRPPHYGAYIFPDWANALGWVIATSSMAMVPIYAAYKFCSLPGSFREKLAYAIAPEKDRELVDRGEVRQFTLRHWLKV
# Adrenergic α2A = Adrenergic α2A (Homo sapiens, UniProt P08913); assay: Eurofins panel 203630; type: binding
# Chain of Adrenergic α2A (P08913 whole entry): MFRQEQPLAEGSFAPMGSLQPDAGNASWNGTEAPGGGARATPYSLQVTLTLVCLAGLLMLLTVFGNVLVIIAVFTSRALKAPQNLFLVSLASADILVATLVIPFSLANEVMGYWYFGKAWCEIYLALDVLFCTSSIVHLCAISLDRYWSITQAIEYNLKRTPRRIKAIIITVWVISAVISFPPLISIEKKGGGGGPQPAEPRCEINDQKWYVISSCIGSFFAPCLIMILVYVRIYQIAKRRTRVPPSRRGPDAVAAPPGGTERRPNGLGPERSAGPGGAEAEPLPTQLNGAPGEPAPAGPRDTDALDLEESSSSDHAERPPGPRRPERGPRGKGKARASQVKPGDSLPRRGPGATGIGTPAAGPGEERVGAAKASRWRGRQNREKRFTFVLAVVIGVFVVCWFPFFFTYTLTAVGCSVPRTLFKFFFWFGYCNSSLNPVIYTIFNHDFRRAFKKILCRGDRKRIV
# Phosphodiesterase PDE4D2 = Phosphodiesterase PDE4D2 (Homo sapiens, UniProt Q08499); assay: Eurofins panel 154420; type: biochemical
# [7] = 3% PXS-4787, individual samples
# [8] = 0.5 or […] cream daily for 28 days
# Chain of Endothelin ETA (P25101 21-427): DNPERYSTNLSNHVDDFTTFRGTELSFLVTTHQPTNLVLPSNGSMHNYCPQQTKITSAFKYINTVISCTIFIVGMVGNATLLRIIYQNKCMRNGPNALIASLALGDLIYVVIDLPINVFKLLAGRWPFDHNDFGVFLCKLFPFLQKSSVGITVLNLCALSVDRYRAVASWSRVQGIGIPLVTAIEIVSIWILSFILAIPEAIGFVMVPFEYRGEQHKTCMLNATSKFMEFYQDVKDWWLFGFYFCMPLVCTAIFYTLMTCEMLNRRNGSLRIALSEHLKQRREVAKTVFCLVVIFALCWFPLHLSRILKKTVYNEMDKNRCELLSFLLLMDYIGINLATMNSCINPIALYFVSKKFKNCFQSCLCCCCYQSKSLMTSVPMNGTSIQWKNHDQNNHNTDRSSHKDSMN
smiles,measurement,setting,value
NC/C=C(\F)CS(=O)(=O)c1ccccc1 [PXS-4787],inhibition at 10 µM,Endothelin ETA; 10 µM,4%
same,inhibition at 10 µM,Histamine H1; 10 µM,14%
same,DLHNL,[1]; [7],32.598 pmol/mg tissue and 48.992 pmol/mg tissue and 38.94 pmol/mg tissue and 30.0045 pmol/mg tissue and 38.524 pmol/mg tissue and 51.535 pmol/mg tissue and 45.099 pmol/mg tissue and 36.456 pmol/mg tissue and 45.26 pmol/mg tissue
same,DPD,[1]; [7],0.2026 pmol/mg tissue and 0.9604 pmol/mg tissue and 0.9521 pmol/mg tissue and 0.3416 pmol/mg tissue and 0.3259 pmol/mg tissue and 0.4694 pmol/mg tissue and 0.5793 pmol/mg tissue and 0.3046 pmol/mg tissue
same,HLNL,[1]; [7],11.709 pmol/mg tissue and 8.873 pmol/mg tissue and 7.946 pmol/mg tissue and 7.092 pmol/mg tissue and 8.4919 pmol/mg tissue and 8.338 pmol/mg tissue and 7.8195 pmol/mg tissue and 7.455 pmol/mg tissue
same,HYP,[1]; [7],8529.4 pmol/mg tissue and 13422.8 pmol/mg tissue and 10345 pmol/mg tissue and 7129.2 pmol/mg tissue and 10620.5 pmol/mg tissue and 15497 pmol/mg tissue and 11840.8 pmol/mg tissue and 10529.6 pmol/mg tissue and 12893.7 pmol/mg tissue
same,PYD,[1]; [7],3.941 pmol/mg tissue and 2.065 pmol/mg tissue and 3.401 pmol/mg tissue and 3.561 pmol/mg tissue and 3.481 pmol/mg tissue and 3.75 pmol/mg tissue and 2.469 pmol/mg tissue and 2.034 pmol/mg tissue
same,collagen cross-links formation in mouse scar,[1]; 3% cream for 28 days,Reduced
same,profile in broad panel of macromolecular targets,[2],clean
same,inhibition at 10 µM,"Opiate κ(OP2, KOP); 10 µM",3%
same,% Inh.,[3]; 10 µM,-4%
same,inhibition at 10 µM,Adrenergic α1D,-1%
same,inhibition at 10 µM,Cannabinoid CB1; 10 µM,8%
same,inhibition at 10 µM,"Opiate µ(OP3, MOP); 10 µM",3%
same,inhibition at 10 µM,Potassium Channel [KATP],0%
same,inhibition at 10 µM,Histamine H2; 10 µM,-4%
same,% Inh.,"Sodium Channel, Site 2; 10 µM",13%
same,inhibition at 10 µM,[4]; 10 µM,21%
same,inhibition at 10 µM,[5]; 10 µM,6%
same,inhibition at 10 µM,[6]; 10 µM,6%
same,inhibition at 10 µM,Adrenergic α2A; 10 µM,1%
NC/C=C(\F)C(F)(F)S(=O)(=O)c1ccccc1 [PXS-6302],inhibition at 30 µM,Endothelin ETA; read-out: % Inh.,7%
same,inhibition at 30 µM,Histamine H1; read-out: % Inh.,10%
same,inhibition at 30 µM,Phosphodiesterase PDE4D2,3%
same,DHLNL,"[1]; 0.5%, individual animals",67.3445 pmol/mg protein and 104.493 pmol/mg protein and 49.564 pmol/mg protein and 93.5833 pmol/mg protein and 114.502 pmol/mg protein and 104.151 pmol/mg protein and 87.6663 pmol/mg protein and 102.971 pmol/mg protein
same,DPD,"[1]; 0.5%, individual animals",0.09524 pmol/mg protein and 0.2563 pmol/mg protein and 0.2515 pmol/mg protein and 0.4184 pmol/mg protein and 0.4492 pmol/mg protein and 0.4037 pmol/mg protein and 0.2113 pmol/mg protein and 0.2885 pmol/mg protein
same,HLNL,"[1]; 0.5%, individual animals",0.7003 pmol/mg protein and 0.9861 pmol/mg protein and 0.7921 pmol/mg protein and 1.215 pmol/mg protein and 1.527 pmol/mg protein and 1.179 pmol/mg protein and 1.122 pmol/mg protein and 0.9282 pmol/mg protein
same,HYP,"[1]; 0.5%, individual animals",135437 pmol/mg protein and 169286 pmol/mg protein and 127310 pmol/mg protein and 207537 pmol/mg protein and 183083 pmol/mg protein and 195703 pmol/mg protein and 151852 pmol/mg protein and 169426 pmol/mg protein
same,PYD,"[1]; 0.5%, individual animals",1.932 pmol/mg protein and 5.635 pmol/mg protein and 3.784 pmol/mg protein and 5.7092 pmol/mg protein and 5.347 pmol/mg protein and 5.273 pmol/mg protein and 4.615 pmol/mg protein and 4.89 pmol/mg protein
same,hydroxyproline concentration in scar,[1]; [8],dose-dependent reduction
same,mature and immature crosslinks in scar,[1]; [8],dose-dependently diminished
same,inhibition at 30 µM,"Opiate κ(OP2, KOP); read-out: % Inh.",10%
same,% Inh.,[3]; 30 µM,2%
same,inhibition at 30 µM,Cannabinoid CB1; read-out: % Inh.,4%
same,inhibition at 30 µM,"Opiate µ(OP3, MOP); read-out: % Inh.",12%
same,inhibition at 30 µM,Histamine H2; read-out: % Inh.,5%
same,% Inh.,"Sodium Channel, Site 2; 30 µM",66%
same,inhibition at 30 µM,[4]; read-out: % Inh.,63%
same,inhibition at 30 µM,[5]; read-out: % Inh.,6%
same,inhibition at 30 µM,[6]; read-out: % Inh.,50%
same,inhibition at 30 µM,Adrenergic α2A; read-out: % Inh.,17%
